ChEMBL document CHEMBL4651402, “Screening of ~5500 FDA-approved drugs and clinical candidates for anti-SARS-CoV-2 activity” (2021)

System: SARS-CoV-2
Assay: microbe, parasite or virus in culture
Conditions: Severe acute respiratory syndrome coronavirus 2, Vero C1008, 48 h

SMILES	IC50 [µM]	IC50 (read-out: pIC50 (converted)) [µM]
COc1cc(O)c(C(C)=O)c(OC)c1 [XANTHOXYLIN]	> 20	> 20
OCCN1CCN(CCCN2c3ccccc3Sc3ccc(Cl)cc32)CC1 [PERPHENAZINE]	> 20	> 20
Cc1cc(=O)oc2cc(O)c(O)cc12 [4-METHYLESCULETIN]	> 20	> 20
COc1ccc2c3c1OC1C(O)C=CC4C(C2)[N+](C)(C)CCC341 (configuration not stated)	> 20	> 20
CCC(C)(CN(C)C)OC(=O)c1ccccc1 (configuration not stated) [AMYLOCAINE]	> 20	> 20
Sc1ncnc2nc[nH]c12 [MERCAPTOPURINE ANHYDROUS]	> 20	> 20
CC(C)NCC(O)COc1ccc(COCCOC(C)C)cc1 (configuration not stated) [BISOPROLOL]	> 20	> 20
CC(C)c1c(C(=O)Nc2ccccc2)c(-c2ccccc2)c(-c2ccc(F)cc2)n1CC[C@@H](O)C[C@@H](O)CC(=O)O [ATORVASTATIN]	> 20	> 20
CC(C)(C)NCC(O)c1ccc(O)c(CS(C)(=O)=O)c1 (configuration not stated) [SULFONTEROL]	> 20	> 20
CC1(C)CNc2cc(NC(=O)c3cccnc3NCc3ccncc3)ccc21 [MOTESANIB]	> 20	> 20
C[C@H]1C[C@H]2[C@@H]3CCC4=CC(=O)C=C[C@]4(C)[C@@]3(F)[C@@H](O)C[C@]2(C)[C@@]1(O)C(=O)CCl [CLOBETASOL]	> 20	> 20
CN1C(=N)N(c2ccccc2)CC1=O [AZOLIMINE]	> 20	> 20
CN(Cc1cc(Br)cc(Br)c1N)C1CCCCC1 [BROMHEXINE]	> 20	> 20
CC(C(=O)O)c1ccc(Oc2nccs2)cc1 (configuration not stated) [ZOLIPROFEN]	> 20	> 20
CCCCCCCCCCCCCCCC[N+](C)(C)CCN(Cc1ccc(OC)cc1)c1ncccn1 [THONZONIUM]	> 20	> 20
COC(=O)C1=C(C)NC(C)=C(C(=O)OCCCN2CCC(c3ccccc3)(c3ccccc3)CC2)C1c1cccc([N+](=O)[O-])c1 (configuration not stated)	> 20	> 20
OC[C@H]1O[C@@H](O[C@@H]2[C@@H](CO)O[C@](O)(CO)[C@H]2O)[C@H](O)[C@@H](O)[C@H]1O [LACTULOSE]	> 20	> 20
NC(=O)NCCC[C@H](N)C(=O)O [L-CITRULLINE]	> 20	> 20
O=C(O)/C=C\C(=O)O [MALEIC ACID]	> 20	> 20
CO[C@@]12[C@H](COC(N)=O)C3=C(C(=O)C(C)=C(N)C3=O)N1C[C@@H]1N[C@@H]12 [MITOMYCIN]	> 20	> 20
CC(=O)/C=C(\C)NCCN/C(C)=C/C(C)=O	> 20	> 20
CC[C@H](NC(=O)[C@H](C)NC)C(=O)N1C[C@@H](O)C[C@H]1Cc1c(-c2[nH]c3cc(F)ccc3c2C[C@@H]2C[C@H](O)CN2C(=O)[C@H](CC)NC(=O)[C@H](C)NC)[nH]c2cc(F)ccc12 [BIRINAPANT]	> 20	> 20
CCN(CC)CCOC(c1ccccc1)c1ccccc1	> 20	> 20
COC1C(C)OC(OC2C=C3CCC4C(CCC5(C)C(c6ccc(=O)oc6)CCC45O)C3(C)CC2)C(O)C1O (configuration not stated)	> 20	> 20

SMILES	IC50 [µM]	IC50 (read-out: pIC50 (converted)) [µM]
Cc1nnc(C(C)C)n1[C@H]1C[C@H]2CC[C@@H](C1)N2CC[C@H](NC(=O)C1CCC(F)(F)CC1)c1ccccc1 [MARAVIROC]	> 20	> 20
Cc1c(N(C)C)c(=O)n(-c2ccccc2)n1C [AMINOPYRINE]	> 20	> 20
C#C[C@]1(O)CC[C@H]2[C@@H]3CC[C@H]4Cc5nn(S(C)(=O)=O)cc5C[C@]4(C)[C@H]3CC[C@@]21C [ZANOTERONE]	> 20	> 20
CC[C@]1(c2ccccc2)NC(=O)N(C)C1=O	> 20	> 20
CCn1cc(C(=O)O)c(=O)c2cc(F)c(N3CCNCC3)nc21 [ENOXACIN]	> 20	> 20
COc1ccc(-n2nc3c4c([nH]cc-3c2=O)CCCCC4)cc1	> 20	> 20
N=C(N)NCc1cccc(I)c1 [IOBENGUANE]	> 20	> 20
C=C1/C(=C\C=C2/CCC[C@]3(C)[C@@H]([C@H](C)/C=C/[C@@H](O)C4CC4)CC[C@@H]23)C[C@@H](O)C[C@@H]1O [CALCIPOTRIENE]	> 20	> 20
CCCN(CCC)C(=O)C(CCC(=O)O)NC(=O)c1ccccc1 (configuration not stated) [PROGLUMIDE]	> 20	> 20
CC(CCc1ccccc1)NC(C)C(O)c1ccc(O)cc1 (configuration not stated) [NYLIDRIN]	> 20	> 20
CC(C)(C(=O)c1cccnc1)c1cccnc1 [METYRAPONE]	> 20	> 20
CCOC(=O)/C=C/[C@H](C[C@@H]1CCNC1=O)NC(=O)[C@@H](CC(=O)[C@@H](NC(=O)c1cc(C)on1)C(C)C)Cc1ccc(F)cc1	> 25.1	> 25.1
COC(=O)C1=C(C)NC(C)=C(C(=O)OCCN(C)Cc2ccccc2)C1c1cccc([N+](=O)[O-])c1 (configuration not stated) [NICARDIPINE]	> 20	> 20
COC(=O)Nc1nc2cc(Sc3ccccc3)ccc2[nH]1 [FENBENDAZOLE]	> 20	> 20
CC1=CC(=O)c2c(O)cccc2C1=O [PLUMBAGIN]	> 20	> 20
NC(=O)c1ncn([C@@H]2O[C@H](CO)[C@@H](O)[C@H]2O)n1 [RIBAVIRIN]	> 50.1	> 50.1
C[C@@H]1C(=O)O[C@H]2[C@H](O)[C@]34[C@@H]5OC(=O)[C@]3(O[C@@H]3OC(=O)[C@H](O)C34C(C(C)(C)C)C5O)[C@@]12O (some centres not stated)	> 20	> 20
NC(N)=O [UREA]	> 20	> 20
CCOC(=O)C1(c2ccccc2)CCN(CCC(O)c2ccccc2)CC1 (configuration not stated) [PHENOPERIDINE]	> 20	> 20
C[C@H](CCC(=O)O)[C@H]1CC[C@H]2[C@@H]3[C@@H](O)C[C@@H]4C[C@H](O)CC[C@]4(C)[C@H]3C[C@H](O)[C@]12C	> 20	> 20
NC(=O)Oc1ccc(Cc2ccccc2)cc1	> 20	> 20
Oc1ncnc2[nH]ncc12 [ALLOPURINOL]	> 20	> 20
O=S(=O)(c1cccc2cnccc12)N1CCCNCC1 [FASUDIL]	> 20	> 20
CCO[C@@H]1O[C@@H]2O[C@@]3(C)CC[C@@H]4[C@H](C)CC[C@@H]([C@H]1C)[C@@]24OO3	> 20	> 20

SMILES	IC50 [µM]	IC50 (read-out: pIC50 (converted)) [µM]
CCN(CC)C(=O)C1C=C2c3cccc4[nH]cc(c34)CC2N(C)C1 (configuration not stated)	> 20	> 20
C[C@@H]1COC(Nc2ccc3ncnc(Nc4ccc(OCc5nccs5)c(Cl)c4)c3c2)=N1 [VARLITINIB]	> 20	> 20
C/C=C(\C)C(=O)OC1C(OC(C)=O)C2(CO)C(O)CC3(C)C(=CCC4C5(C)CCC(OC6OC(C(=O)O)C(OC7OC(CO)C(O)C(O)C7O)C(O)C6OC6OC(CO)C(O)C(O)C6O)C(C)(CO)C5CCC43C)C2CC1(C)C (configuration not stated)	> 20	> 20
C1COC(NC(C2CC2)C2CC2)=N1 [RILMENIDINE]	> 20	> 20
COc1cc(C(=S)N2CCOCC2)cc(OC)c1OC [TRITIOZINE]	> 20	> 20
CS(=O)(=O)c1ccc(-c2cn3ccccc3n2)cc1 [ZOLIMIDINE]	> 20	> 20
CC(/C=C1\SC(=S)N(CC(=O)O)C1=O)=C\c1ccccc1	> 20	> 20
C#C[C@]1(O)C=C[C@H]2[C@@H]3CCC4=CC(=O)CC[C@@H]4[C@H]3CC[C@@]21CC [GESTODENE]	> 20	> 20
O=C(N[C@H]1CN2CCC1CC2)c1c[nH]c2ccsc2c1=O [PUMOSETRAG]	> 20	> 20
C=CCNC1=C2C[C@@H](C)C[C@H](OC)[C@H](O)[C@@H](C)/C=C(/C)[C@H](OC(N)=O)[C@@H](OC)/C=C\C=C(\C)C(=O)NC(=CC1=O)C2=O	> 20	> 20
CN(C)CCN1C(=O)CC(c2ccccc2)Sc2ccccc21 (configuration not stated) [THIAZESIM]	> 20	> 20
CCNC(=O)C[C@H]1N=C(c2ccc(Cl)cc2)c2cc(OC)ccc2-n2c(C)nnc21	> 20	> 20
NC(=O)N1c2ccccc2C2OC2c2ccccc21 (configuration not stated) [CARBAMAZEPINE EPOXIDE]	> 20	> 20
Cn1c(=O)c2c(ncn2CCN2CCC(C(=O)c3ccc(F)cc3)CC2)n(C)c1=O [FLUFYLLINE]	> 20	> 20
CCOC(=O)c1c(C)cc(O)cc1O [ORSELLINIC ACID, ETHYL ESTER]	> 20	> 20
C[C@@H](CN1CC(=O)NC(=O)C1)N1CC(=O)NC(=O)C1 [DEXRAZOXANE]	> 20	> 20
CCN(CC)CCSC(=O)C(c1ccccc1)c1ccccc1	> 20	> 20
C/C(=C(\CCOP(=O)(O)O)SC(=O)c1ccccc1)N(C=O)Cc1cnc(C)nc1N [BENFOTIAMINE]	> 20	> 20
COc1cc(F)c(F)c(Nc2ccc(I)cc2F)c1NS(=O)(=O)C1(C[C@H](O)CO)CC1 [REFAMETINIB]	> 20	> 20
CN(C)CCOC(=O)C(c1ccccc1)C1(O)CCCC1 (configuration not stated) [CYCLOPENTOLATE]	> 20	> 20
CC(C)(C)NC(=O)[C@H]1CC[C@H]2[C@H]3CC[C@H]4NC(=O)C=C[C@]4(C)[C@H]3CC[C@]12C	> 20	> 20
CCOc1cc2ncc(C#N)c(Nc3ccc(F)c(Cl)c3)c2cc1NC(=O)/C=C/CN(C)C [PELITINIB]	> 20	> 20
COCc1c(-c2cc3cc(C)cc(OC)c3s2)c2c(N)ncnn2c1CN1CCNC(=O)C1 [ROGARATINIB]	> 20	> 20
